In patent US20260078122A1, “INDAZOLE COMPOUNDS AS PKMYT1 KINASE INHIBITORS” (Hoffmann-La Roche Inc., priority 2023, published 2026):

What follows are molecules tested against T1, recombinant human Myt1 (full length PKMYT1) (Homo sapiens, UniProt Q99640) (assay: ADP-Glo assay (Myt1 kinase activity)).
T1 sequence (Q99640 1-499): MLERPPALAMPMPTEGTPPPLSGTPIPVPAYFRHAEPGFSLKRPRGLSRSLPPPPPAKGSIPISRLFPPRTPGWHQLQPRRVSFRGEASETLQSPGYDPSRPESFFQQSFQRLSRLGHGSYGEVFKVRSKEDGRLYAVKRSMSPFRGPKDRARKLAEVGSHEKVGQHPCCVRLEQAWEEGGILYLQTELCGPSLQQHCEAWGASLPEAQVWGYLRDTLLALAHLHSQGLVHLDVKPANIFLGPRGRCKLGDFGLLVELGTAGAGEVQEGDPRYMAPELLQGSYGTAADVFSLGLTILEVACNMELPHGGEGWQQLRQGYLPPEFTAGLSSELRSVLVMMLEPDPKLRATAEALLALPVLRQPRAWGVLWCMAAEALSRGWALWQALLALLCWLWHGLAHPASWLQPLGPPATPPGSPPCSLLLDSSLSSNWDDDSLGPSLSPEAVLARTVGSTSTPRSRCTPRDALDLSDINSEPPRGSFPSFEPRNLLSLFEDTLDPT

IC50 | SMILES
< 10 nM | COC(C)(C)C#Cc1cc(C)c2[nH]c(=O)c(N)c(-c3ccc(F)c4[nH]ncc34)c2n1 [Example 149, 3-Amino-4-(7-fluoro-1H-indazol-4-yl)-6-(3-methoxy-3-methyl-but-1-ynyl)-8-methyl-1H-1,5-naphthyridin-2-one]
< 10 nM | Cc1cc2[nH]c(=O)c(N)c(-c3ccc(F)c4[nH]ncc34)c2nc1OCC(F)F [Example 059, 3-Amino-6-(2,2-difluoroethoxy)-4-(7-fluoro-1H-indazol-4-yl)-7-methyl-1H-1,5-naphthyridin-2-one]
10.8 nM | Cc1ncc(OC2CC2)c2c(-c3ccc(F)c4[nH]ncc34)c(N)c(=O)[nH]c12 [Example 187, 3-Amino-5-(cyclopropoxy)-4-(7-fluoro-1H-indazol-4-yl)-8-methy-1H-1,7-naphthyridin-2-one]
25.6 nM | Nc1c(-c2cccc3[nH]ncc23)c2ncc(-c3nccs3)cc2[nH]c1=O [Example 35, 3-Amino-4-(1H-indazol-4-yl)-7-thiazol-2-yl-1H-1,5-naphthyridin-2-one]
12 nM | Cc1cc2[nH]c(=O)c(N)c(-c3ccc(F)c4[nH]ncc34)c2nc1N1CCN(C2CC2)CC1 [Example 29, 3-Amino-6-(4-cyclopropylpiperazin-1-yl)-4-(7-fluoro-1H-indazol-4-yl)-7-methyl-1H-1,5-naphthyridin-2-one]
12.3 nM | COC(=O)c1nc2c(-c3ccc(F)c4[nH]ncc34)c(N)c(=O)[nH]c2cc1C [Example 087, Methyl 7-amino-8-(7-fluoro-1H-indazol-4-yl)-3-methyl-6-oxo-5H-1,5-naphthyridine-2-carboxylate]
< 10 nM | Cc1cc2[nH]c(=O)c(N)c(-c3ccc(F)c4[nH]ncc34)c2nc1-c1ncco1 [Example 154, 3-Amino-4-(7-fluoro-1H-indazol-4-yl)-7-methyl-6-oxazol-2-yl-1H-1,5-naphthyridin-2-one]
15.2 nM | Cc1cc(C#CC2COC2)nc2c(-c3ccc(F)c4[nH]ncc34)c(N)c(=O)[nH]c12 [Example 150, 3-Amino-4-(7-fluoro-1H-indazol-4-yl)-8-methyl-6-[2-(oxetan-3-yl)ethynyl]-1H-1,5-naphthyridin-2-one]
17.8 nM | Cc1cc2[nH]c(=O)c(N)c(-c3ccc(F)c4[nH]ncc34)c2nc1OC1CC(C#N)C1 (centres unmarked) [Example 079, 3-[[7-Amino-8-(7-fluoro-1H-indazol-4-yl)-3-methyl-6-oxo-5H-1,5-naphthyridin-2-yl]oxy]cyclobutanecarbonitrile]
15.8 nM | COc1ncc(Cl)c2[nH]c(=O)c(N)c(-c3ccc(F)c4[nH]ncc34)c12 [Example 171, 3-Amino-8-chloro-4-(7-fluoro-1H-indazol-4-yl)-5-methoxy-1H-1,6-naphthyridin-2-one]
14.6 nM | Cc1cc2[nH]c(=O)c(N)c(-c3ccc(F)c4[nH]ncc34)c2nc1OCCC(F)F [Example 081, 3-Amino-6-(3,3-difluoropropoxy)-4-(7-fluoro-1H-indazol-4-yl)-7-methyl-1H-1,5-naphthyridin-2-one]
15.3 nM | CCCOc1cnc(C)c2[nH]c(=O)c(N)c(-c3ccc(F)c4[nH]ncc34)c12 [Example 190, 3-Amino-4-(7-fluoro-1H-indazol-4-yl)-8-methyl-5-propoxy-1H-1,7-naphthyridin-2-one]
10.4 nM | CSc1cnc2c(-c3ccc(F)c4[nH]ncc34)c(N)c(=O)[nH]c2c1C [Example 141, 3-Amino-4-(7-fluoro-1H-indazol-4-yl)-8-methyl-7-methylsulfanyl-1H-1,5-naphthyridin-2-one]
24.9 nM | Cc1cc2[nH]c(=O)c(N)c(-c3ccc(F)c4[nH]ncc34)c2nc1C(F)(F)F [Example 097, 3-Amino-4-(7-fluoro-1H-indazol-4-yl)-7-methyl-6-(trifluoromethyl)-1H-1,5-naphthyridin-2-one]
17.2 nM | Cc1cc2[nH]c(=O)c(N)c(-c3ccc(F)c4[nH]ncc34)c2nc1OCC(C)(C)O [Example 078, 3-Amino-4-(7-fluoro-1H-indazol-4-yl)-6-(2-hydroxy-2-methyl-propoxy)-7-methyl-1H-1,5-naphthyridin-2-one]
30.3 nM | Nc1c(-c2ccc(F)c3[nH]ncc23)c2ncc(N3CCOCC3)cc2[nH]c1=O [Example 19, 3-Amino-4-(7-fluoro-1H-indazol-4-yl)-7-morpholino-1H-1,5-naphthyridin-2-one]
21.3 nM | Cc1cc2[nH]c(=O)c(N)c(-c3ccc(F)c4[nH]ncc34)c2nc1N1CC2CCC1CN2C (centres unmarked) [Example 31, 3-Amino-4-(7-fluoro-1H-indazol-4-yl)-7-methyl-6-(5-methyl-2,5-diazabicyclo[2.2.2]octan-2-yl)-1H-1,5-naphthyridin-2-one]

IC50 | SMILES
24.2 nM | CC(C)(O)c1cnc2c(-c3ccc(F)c4[nH]ncc34)c(N)c(=O)[nH]c2c1 [Example 20, 3-Amino-4-(7-fluoro-1H-indazol-4-yl)-7-(1-hydroxy-1-methyl-ethyl)-1H-1,5-naphthyridin-2-one]
18.1 nM | CCc1cnc(C)c2[nH]c(=O)c(N)c(-c3ccc(F)c4[nH]ncc34)c12 [Example 178, 3-Amino-5-ethyl-4-(7-fluoro-1H-indazol-4-yl)-8-methyl-1H-1,7-naphthyridin-2-one]
15.8 nM | Cc1ncc(OCC(F)F)c2c(-c3ccc(F)c4[nH]ncc34)c(N)c(=O)[nH]c12 [Example 186, 3-Amino-5-(2,2-difluoroethoxy)-4-(7-fluoro-1H-indazol-4-yl)-8-methyl-1H-1,7-naphthyridin-2-one]
< 10 nM | Cc1cc2[nH]c(=O)c(N)c(-c3ccc(F)c4[nH]ncc34)c2nc1OCC1(C#N)CC1 [Example 58, 1-[[7-Amino-8-(7-fluoro-1H-indazol-4-yl)-3-methyl-6-oxo-5H-1,5-naphthyridin-2-yl]oxymethyl]cyclopropanecarbonitrile]
13.9 nM | Cc1ncc(C)c2c(-c3ccc(F)c4[nH]ncc34)c(N)c(=O)[nH]c12 [Example 177, 3-Amino-4-(7-fluoro-1H-indazol-4-yl)-5,8-dimethyl-1H-1,7-naphthyridin-2-one]
< 10 nM | Cc1cc2[nH]c(=O)c(N)c(-c3ccc(F)c4[nH]ncc34)c2nc1N1CCN(C)CC1 [Example 22, 3-Amino-4-(7-fluoro-1H-indazol-4-yl)-7-methyl-6-(4-methylpiperazin-1-yl)-1H-1,5-naphthyridin-2-one]
18.5 nM | Cc1cc2[nH]c(=O)c(N)c(-c3ccc(F)c4[nH]ncc34)c2cc1N1CC2(COC2)C1 [Example 105, 3-Amino-4-(7-fluoro-1H-indazol-4-yl)-7-methyl-6-(2-oxa-6-azaspiro[3.3]heptan-6-yl)-1H-quinolin-2-one]
< 10 nM | Nc1c(-c2ccc(F)c3[nH]ncc23)c2nccc(Cl)c2[nH]c1=O [Example 50, 3-Amino-8-chloro-4-(7-fluoro-1H-indazol-4-yl)-1H-1,5-naphthyridin-2-one]
14.7 nM | CCCOc1nc2c(-c3ccc(F)c4[nH]ncc34)c(N)c(=O)[nH]c2cc1C [Example 065, 3-Amino-4-(7-fluoro-1H-indazol-4-yl)-7-methyl-6-propoxy-1H-1,5-naphthyridin-2-one]
14.7 nM | Cc1cc2[nH]c(=O)c(N)c(-c3ccc(F)c4[nH]ncc34)c2nc1-c1ccccn1 [Example 155, 3-Amino-4-(7-fluoro-1H-indazol-4-yl)-7-methyl-6-(2-pyridyl)-1H-1,5-naphthyridin-2-one]
16.1 nM | Nc1c(-c2ccc(F)c3[nH]ncc23)c2ncc(-c3ccn[nH]3)cc2[nH]c1=O [Example 9, 3-Amino-4-(7-fluoro-1H-indazol-4-yl)-7-(1H-pyrazol-5-yl)-1H-1,5-naphthyridin-2-one]
15 nM | Cc1ncc(OCCC(F)F)c2c(-c3ccc(F)c4[nH]ncc34)c(N)c(=O)[nH]c12 [Example 188, 3-Amino-5-(3,3-difluoropropoxy)-4-(7-fluoro-1H-indazol-4-yl)-8-methyl-1H-1,7-naphthyridin-2-one]
17.5 nM | Cc1cc2[nH]c(=O)c(N)c(-c3ccc(F)c4[nH]ncc34)c2nc1OCCN(C)C [Example 068, 3-Amino-6-[2-(dimethylamino)ethoxy]-4-(7-fluoro-1H-indazol-4-yl)-7-methyl-1H-1,5-naphthyridin-2-one]
11.6 nM | Cn1cncc1-c1cnc2c(-c3ccc(F)c4[nH]ncc34)c(N)c(=O)[nH]c2c1 [Example 8, 3-Amino-4-(7-fluoro-1H-indazol-4-yl)-7-(3-methylimidazol-4-yl)-1H-1,5-naphthyridin-2-one]
10.4 nM | Cc1cc2[nH]c(=O)c(N)c(-c3ccc(F)c4[nH]ncc34)c2nc1C1CC1 [Example 18, 3-Amino-6-cyclopropyl-4-(7-fluoro-1H-indazol-4-yl)-7-methyl-1H-1,5-naphthyridin-2-one]
< 10 nM | CC(=O)c1nc2c(-c3ccc(F)c4[nH]ncc34)c(N)c(=O)[nH]c2c(Cl)c1C [Example 112, 6-Acetyl-3-amino-8-chloro-4-(7-fluoro-1H-indazol-4-yl)-7-methyl-1H-1,5-naphthyridin-2-one]
11.9 nM | Cc1cc2[nH]c(=O)c(N)c(-c3ccc(F)c4[nH]ncc34)c2nc1C1COC1 [Example 093, 3-Amino-4-(7-fluoro-1H-indazol-4-yl)-7-methyl-6-(oxetan-3-yl)-1H-1,5-naphthyridin-2-one]

SMILES | IC50
Cc1cc2[nH]c(=O)c(N)c(-c3ccc(F)c4[nH]ncc34)c2nc1OC1CC(C(C)(C)O)C1 (centres unmarked) [Example 096, 3-Amino-4-(7-fluoro-1H-indazol-4-yl)-6-[3-(1-hydroxy-1-methyl-ethyl)cyclobutoxy]-7-methyl-1H-1,5-naphthyridin-2-one] | 65.2 nM
